Reference: patent US20260132129A1 (Genesis Therapeutics, Inc., priority 2022, published 2026)

Target: T1, PI3Kα H1047R (T47D cells) (Homo sapiens, UniProt P42336, H1047R)
T1 construct: endogenous in cells; host or cells: T47D cells
Assay: PI3Kα cellular assay: pAKT HTRF in T47D cells after EGF stimulation
Assay type: cell-based
Procedure, shortened: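 pAKT read by HTRF in lysates of EGF-stimulated (20 ng/mL, 10 min) T47D H1047R cells. Before stimulation, serum-starved cells (16 h) received compound for 1 h at 37 °C, dosed from 10,000 nM down to 0.5 nM in 3-fold steps.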

T1 sequence (P42336 whole entry H1047R): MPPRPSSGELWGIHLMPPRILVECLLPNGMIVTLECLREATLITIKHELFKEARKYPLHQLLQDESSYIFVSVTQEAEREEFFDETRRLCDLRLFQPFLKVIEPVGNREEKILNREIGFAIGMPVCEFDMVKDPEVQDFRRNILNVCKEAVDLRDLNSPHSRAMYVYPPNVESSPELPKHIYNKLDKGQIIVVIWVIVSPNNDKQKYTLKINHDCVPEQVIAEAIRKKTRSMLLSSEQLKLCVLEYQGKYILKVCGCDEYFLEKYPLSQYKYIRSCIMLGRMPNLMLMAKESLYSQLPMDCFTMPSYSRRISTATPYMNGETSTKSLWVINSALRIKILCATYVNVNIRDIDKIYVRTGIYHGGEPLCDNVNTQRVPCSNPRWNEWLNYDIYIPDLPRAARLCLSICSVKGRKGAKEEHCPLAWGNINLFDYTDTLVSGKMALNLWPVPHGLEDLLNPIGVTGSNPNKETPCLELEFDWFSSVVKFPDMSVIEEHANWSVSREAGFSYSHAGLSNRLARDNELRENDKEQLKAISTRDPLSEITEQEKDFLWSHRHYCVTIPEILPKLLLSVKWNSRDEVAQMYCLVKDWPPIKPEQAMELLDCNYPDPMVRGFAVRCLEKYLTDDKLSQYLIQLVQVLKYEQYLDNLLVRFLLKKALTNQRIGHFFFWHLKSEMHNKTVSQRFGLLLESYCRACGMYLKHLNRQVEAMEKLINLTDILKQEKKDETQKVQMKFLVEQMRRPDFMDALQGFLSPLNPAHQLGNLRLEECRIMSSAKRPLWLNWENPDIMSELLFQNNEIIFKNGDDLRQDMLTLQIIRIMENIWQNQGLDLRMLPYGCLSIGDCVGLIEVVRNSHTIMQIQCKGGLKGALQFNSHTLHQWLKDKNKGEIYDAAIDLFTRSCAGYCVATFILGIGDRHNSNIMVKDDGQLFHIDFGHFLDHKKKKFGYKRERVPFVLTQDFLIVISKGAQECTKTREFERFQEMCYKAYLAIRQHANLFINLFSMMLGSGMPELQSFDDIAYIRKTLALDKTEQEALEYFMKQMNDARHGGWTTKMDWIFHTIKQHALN
T1 sequence (P27986 whole entry partner): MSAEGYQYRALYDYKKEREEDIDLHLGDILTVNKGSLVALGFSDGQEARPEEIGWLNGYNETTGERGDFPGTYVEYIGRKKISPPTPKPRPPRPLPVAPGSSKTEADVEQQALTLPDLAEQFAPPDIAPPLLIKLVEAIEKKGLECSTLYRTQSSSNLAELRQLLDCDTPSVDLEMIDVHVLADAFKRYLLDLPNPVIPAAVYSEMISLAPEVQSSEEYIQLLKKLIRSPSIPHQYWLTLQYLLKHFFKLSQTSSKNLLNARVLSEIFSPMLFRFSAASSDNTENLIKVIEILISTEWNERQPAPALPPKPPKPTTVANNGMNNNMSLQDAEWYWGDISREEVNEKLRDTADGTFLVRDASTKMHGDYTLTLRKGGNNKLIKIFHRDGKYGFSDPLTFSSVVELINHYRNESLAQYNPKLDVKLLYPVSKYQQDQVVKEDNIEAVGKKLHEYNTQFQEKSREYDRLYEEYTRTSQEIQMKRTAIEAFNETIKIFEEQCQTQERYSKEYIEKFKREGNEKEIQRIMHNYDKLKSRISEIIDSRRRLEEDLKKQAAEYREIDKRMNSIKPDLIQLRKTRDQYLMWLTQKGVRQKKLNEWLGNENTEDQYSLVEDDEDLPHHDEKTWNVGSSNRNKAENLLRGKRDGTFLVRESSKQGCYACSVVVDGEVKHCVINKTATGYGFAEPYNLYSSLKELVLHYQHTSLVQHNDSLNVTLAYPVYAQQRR

- IC50 (T47D cells (PI3Kα H1047R), pAKT S473 HTRF, EGF stimulation): 100 to 500 nM
- T47D pAKT S473 HTRF IC50 (H1047R): T47D (H1047R) selectivity over SKBR3 (WT) (selectivity T47D (H1047R) over SKBR3 (WT), pAKT HTRF): A (A denotes >20-fold)
SMILES: Cc1cc(C(C)Nc2ccccc2C(=O)O)c2nc(-c3cc(C)c4oc(=O)[nH]c4c3)cc(=O)n2c1 (centres unmarked) [Compound 1413, 2-((1-(7-methyl-2-(7-methyl-2-oxo-2,3-dihydrobenzo[d]oxazol-5-yl)-4-oxo-4H-pyrido[1,2-a]pyrimidin-9-yl)ethyl)amino)benzoic acid]
